Where two headings read alike, the source gives them in different places.
Legend:
[1] = man; D. Lorenz et al. 1985; cited from earlier work
[2] = Increase of solubility with the solubilisers of the invention relative to purely aqueous phase; format: physicochemical; conditions: fold increase versus solubility in purely aqueous phase, with solubilisers I-III
Text: Überraschenderweise wurde nun gefunden, daß die Löslichkeit der Anthrachinone durch den Einsatz von mindestens einem Lösungsvermittler ausgewählt aus • I. Polyethylenglykol-660-12-Hydroxystearat • II. Tetrahydrofurfurylalkoholpolyethylenglykolether • III. Wasserlösliche Beta- und Gamma-Cyclodextrinderivate, allein oder in Kombination mit anderen, physiologisch geeigneten, nichtwäßrigen Lösungsmitteln bzw. Lösungsvermittlern um mehr als das Hundertfache ihrer Löslichkeit in rein wäßriger Phase erhöht werden kann.

[3] = water, Raumtemperatur, cited from earlier work

O=C1c2ccccc2C(=O)c2c1ccc(O)c2O [Alizarin]
Halbwertzeit [1]: ca. 12 Std. | Erhöhung der Löslichkeit [2]: mehr als das Tausendfache | Löslichkeit in Wasser [3]: ca. 2 µmol/l | Löslichkeit in Wasser ([3]; conversion of the µmol/l value): ≈ 0,48 mg/l
